In patent publication US20040152106A1, “Gene necessary for striatal function, uses thereof, and compounds for modulating same” (priority 1999, published 2004):

Experiments:
[1] = target: T1, PDE10A (Mus musculus, UniProt Q8CA95); conditions: among inhibitors tested on PDE10A; cited from earlier work
T1 sequence (Q8CA95 1-779 isoform Q8CA95-2): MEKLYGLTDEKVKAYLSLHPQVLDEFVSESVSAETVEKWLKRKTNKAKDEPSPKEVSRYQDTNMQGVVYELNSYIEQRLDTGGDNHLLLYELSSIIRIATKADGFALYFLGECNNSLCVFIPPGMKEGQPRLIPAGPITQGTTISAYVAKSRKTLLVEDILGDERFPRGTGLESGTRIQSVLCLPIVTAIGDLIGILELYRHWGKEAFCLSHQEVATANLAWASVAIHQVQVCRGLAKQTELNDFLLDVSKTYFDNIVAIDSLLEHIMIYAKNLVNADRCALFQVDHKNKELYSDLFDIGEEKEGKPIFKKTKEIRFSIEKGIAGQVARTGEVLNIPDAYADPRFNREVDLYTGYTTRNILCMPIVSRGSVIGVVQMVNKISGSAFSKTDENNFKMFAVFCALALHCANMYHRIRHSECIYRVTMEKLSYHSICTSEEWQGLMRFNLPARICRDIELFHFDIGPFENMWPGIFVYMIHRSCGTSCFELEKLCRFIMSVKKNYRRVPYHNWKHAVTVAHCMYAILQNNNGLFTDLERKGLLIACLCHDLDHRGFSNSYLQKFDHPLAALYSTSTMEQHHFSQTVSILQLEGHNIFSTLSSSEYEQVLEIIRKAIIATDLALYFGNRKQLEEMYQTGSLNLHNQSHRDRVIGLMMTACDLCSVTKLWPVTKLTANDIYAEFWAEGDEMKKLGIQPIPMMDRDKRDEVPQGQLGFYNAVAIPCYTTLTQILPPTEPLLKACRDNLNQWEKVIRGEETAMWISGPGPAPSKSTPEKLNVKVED

[2] = tested on: Huntington's disease patient; assay: Clinical use of PDE10A modulator in a Huntington's disease patient (case report); assay type: in vivo, human; conditions: 200 mg twice daily resumed after 7 days of suspension
Experimental: A person was admitted to hospital from a long-term care facility due to progressive deterioration of their physical and mental symptoms caused by Huntington's disease. The patient had been diagnosed with Huntington's disease. Prior to admission to the hospital, they had become increasingly aggressive and uncooperative. Moreover, there appeared to be an increase in the number of psychotic episodes. […] The patient had been stable for a number of years on the antipsycotic haloperidol (3 mg/day). For the last two years, the haloperidol had been replaced by olanzapine (2.5-7.5 mg/day). Minocycline, a tetracycline derivative, was administered at 50 mg twice daily for 7 days, followed by 100 mg twice daily for 7 days and finally 200 mg twice daily for 5 weeks. […] The minocycline treatment was suspended for 7 days. […] Minocycline (200 mg twice daily) treatment will continue indefinitely. The improvement in behaviour and decrease in apparent psychosis has allowed for the transfer of the patient from the acute care facility back to long-term care.

Row | SMILES | potency as inhibitor of PDE10A activity [1] | time to response after resumed treatment [2] [days]
1 | OCCN(CCO)c1nc(N2CCCCC2)c2nc(N(CCO)CCO)nc(N3CCCCC3)c2n1 [Dipyridamole] | highest potency | 
2 | CC(C)Cn1c(=O)n(C)c(=O)c2[nH]cnc21 [IBMX] | potent inhibitor | 
3 | CN(C)c1ccc(O)c2c1C[C@H]1C[C@H]3[C@H](N(C)C)C(O)=C(C(N)=O)C(=O)[C@@]3(O)C(O)=C1C2=O [Minocycline] |  | ≤ 3
4 | CN1C(=O)c2[nH]c(Cc3ccc(C(F)(F)F)cc3)nc2N2C1=N[C@@H]1CCC[C@@H]12 [SCH 51866] | highest potency | 
